# Test results: patent US11247987B2, “Inhibiting ubiquitin specific peptidase 30” (FORMA Therapeutics, Inc., priority 2017, dated 2022)
# Target: T1, human recombinant USP30 (Homo sapiens, UniProt Q70CQ3)
# T1 construct: purchased Boston Biochem E-582
# T1 sequence (Q70CQ3 1-517): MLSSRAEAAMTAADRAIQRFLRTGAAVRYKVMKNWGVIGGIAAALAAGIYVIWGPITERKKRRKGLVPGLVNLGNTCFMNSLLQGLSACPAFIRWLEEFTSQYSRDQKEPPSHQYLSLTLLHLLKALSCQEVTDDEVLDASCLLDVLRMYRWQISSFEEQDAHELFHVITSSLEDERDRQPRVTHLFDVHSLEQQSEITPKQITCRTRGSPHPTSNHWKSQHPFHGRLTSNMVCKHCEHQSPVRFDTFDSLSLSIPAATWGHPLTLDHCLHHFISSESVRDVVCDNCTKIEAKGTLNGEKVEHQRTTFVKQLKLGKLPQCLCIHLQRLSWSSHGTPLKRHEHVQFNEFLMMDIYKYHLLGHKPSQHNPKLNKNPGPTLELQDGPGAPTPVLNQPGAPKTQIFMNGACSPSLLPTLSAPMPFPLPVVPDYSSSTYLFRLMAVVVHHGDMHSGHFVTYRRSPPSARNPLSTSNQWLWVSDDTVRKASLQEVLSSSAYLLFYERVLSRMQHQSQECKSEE
# Assay: Ubiquitin-Rhodamine 110 Assay for USP30 Activity (USP30 Inhibitor Biochemical Assay)
# Conditions: 0.2 nM USP30, 25 nM Ub-Rh110, 30 min preincubation, 30 min at room temperature; read-out: USP30 potency range (USP30 biochemical IC50 assay, IC50 ranges)
# Description: Example A: Biochemical Assay: Ubiquitin-Rhodamine 110 Assay for USP30 Activity (USP30 Inhibitor Biochemical Assay)
# The assay was performed in a final volume of 9 μL in assay buffer containing 20 mM Tris-HCl (pH 8.0, (1M Tris-HCl, pH 8.0 solution; Corning 46-031-CM)), 1 mM GSH (L-glutathione reduced, Sigma-Aldrich, G4251-100G), 0.03% BGG (0.22 μM filtered, Sigma, G7516-25G), and 0.01% Triton X-100 (Sigma, T9284-10L). Nanoliter quantities of 10-point, 3-fold serial dilution in DMSO were pre-dispensed into 1536 assay plates (Corning, #3724BC) for a final test concentration of 25 μM to 1.3 nM, top to lowest dose, respectively. Concentration and incubation times were optimized for the maximal signal-to-background while maintaining initial velocity conditions at a fixed substrate concentration. The final concentration of USP30 (human recombinant USP30, Boston Biochem, cat. # E-582) in the assay was 0.2 nM. […] 3 μL of 2×USP30 was added to assay plates (pre-stamped with compound), preincubated for 30 minutes and then treated with 3 μL of 2×Ub-Rh110. Plates were incubated for 30 minutes at room temperature before addition of 3 μL of stop solution (final concentration of 10 mM citric acid (Sigma, 251275-500G)). Fluorescence was read on the Envision (excitation at 485 nm and emission at 535 nm; Perkin Elmer) or on the PheraSTAR (excitation at 485 nm and emission at 535 nm; BMG Labtech).
# For all assay formats data were reported as percent inhibition compared with control wells based on the following equation: % inh=1−((FLU−AveLow)/(AveHigh−AveLow)) where FLU=measured Fluorescence, AveLow=average Fluorescence of no enzyme control (n=16), and AveHigh=average Fluorescence of DMSO control (n=16). IC50 values were determined by curve fitting of the standard 4 parameter logistic fitting algorithm included in the Activity Base software package: IDBS XE Designer Model205. Data is fitted using the Levenburg Marquardt algorithm.
row,Compound,IC50
1,"N#CN[C@@H]1C[C@H]1C(=O)Nc1ncc(C2CCCCC2)s1 (relative stereo) [Compound 11-1, trans-2-(cyanoamino)-N-(5-cyclohexyl-1,3-thiazol-2-yl)cyclopropane-1-carboxamide]",1000 to 10000 nM
2,"N#CN[C@H]1C[C@H]1C(=O)Nc1ncc(C2CCCCC2)s1 (relative stereo) [Compound 11-2, cis-2-(cyanoamino)-N-(5-cyclohexyl-1,3-thiazol-2-yl)cyclopropane-1-carboxamide]",1000 to 10000 nM
3,"CC1(C)CCCC[C@H]1c1ncc(NC(=O)[C@H]2C[C@H](NC#N)C2)s1 (single isomer, unassigned) [Compound 1-13]",100 to 1000 nM
4,"N#CN[C@H]1C[C@H](C(=O)Nc2ncc([C@@H]3CCCC[C@H]3C(F)(F)F)s2)C1 (single isomer, unassigned) [Compound 1-35]",100 to 1000 nM
5,"N#CN[C@H]1C[C@H](N2C[C@@H](Nc3ncc(C4CCCCC4)s3)CC2=O)C1 (single isomer, unassigned) [Compound 6-1]",100 to 1000 nM
6,"CC(C)(C)c1sc(N2CC[C@]3(C[C@H](NC#N)C3)C2=O)nc1Cl (single isomer, unassigned) [Compound 7-1, ([(2r,4s)-6-(5-tert-butyl-4-chloro-1,3-thiazol-2-yl)-5-oxo-6-azaspiro[3.4]octan-2-yl]amino)carbonitrile]",< 100 nM
7,"CC(C)(C)c1sc(NC(=O)[C@]2(Cl)C[C@@H](NC#N)C2)nc1Cl (single isomer, unassigned) [Compound 9-1, (1s,3s)-N-(5-tert-butyl-4-chloro-1,3-thiazol-2-yl)-1-chloro-3-(cyanoamino)cyclobutane-1-carboxamide]",< 100 nM
8,"CC(C)(C)c1sc(NC(=O)[C@]2(Cl)C[C@H](NC#N)C2)nc1Cl (single isomer, unassigned) [Compound 9-2, (1r,3r)-N-(5-tert-butyl-4-chloro-1,3-thiazol-2-yl)-1-chloro-3-(cyanoamino)cyclobutane-1-carboxamide]",100 to 1000 nM
9,"N#CN[C@H]1C[C@H](C(=O)Nc2ncc(C3CCOCC3)s2)C1 [Compound 1-1, trans-3-(cyanoamino)-N-[5-(oxan-4-yl)-1,3-thiazol-2-yl]cyclobutane-1-carboxamide]",1000 to 10000 nM
10,"Cn1nc(-c2ccccc2)cc1NC(=O)[C@H]1C[C@H](NC#N)C1 [Compound 1-2, (1r,3r)-3-(cyanoamino)-N-(1-methyl-3-phenyl-1H-pyrazol-5-yl)cyclobutane-1-carboxamide]",100 to 1000 nM
11,"N#CN[C@H]1C[C@H](C(=O)Nc2cnc(C3CCCCC3)s2)C1 [Compound 1-3, (1r,3r)-3-(cyanoamino)-N-(2-cyclohexyl-1,3-thiazol-5-yl)cyclobutane-1-carboxamide]",< 100 nM
12,"CN(c1cnc(C2CCCCC2)s1)C(=O)[C@H]1C[C@H](NC#N)C1 [Compound 1-4, (1r,3r)-3-(cyanoamino)-N-(2-cyclohexyl-1,3-thiazol-5-yl)-N-methylcyclobutane-1-carboxamide]",100 to 1000 nM
13,"CN(c1ncc(C(C)(C)C)s1)C(=O)[C@H]1C[C@H](NC#N)C1 [Compound 1-5, (1r,3r)-N-(5-tert-butyl-1,3-thiazol-2-yl)-3-(cyanoamino)-N-methylcyclo-butane-1-carboxamide]",100 to 1000 nM
14,"Cn1nc(C2CCCCC2)cc1NC(=O)[C@H]1C[C@H](NC#N)C1 [Compound 1-6, (1r,3r)-3-(cyanoamino)-N-(3-cyclohexyl-1-methyl-1H-pyrazol-5-yl)cyclobutane-1-carboxamide]",100 to 1000 nM
15,"Cc1nc(C2CCCCC2)sc1NC(=O)[C@H]1C[C@H](NC#N)C1 [Compound 1-7, (1r,3r)-3-(cyanoamino)-N-(2-cyclohexyl-4-methyl-1,3-thiazol-5-yl)cyclobutane-1-carboxamide]",100 to 1000 nM
16,"CC(C)Oc1ccccc1-c1ncc(NC(=O)[C@H]2C[C@H](NC#N)C2)s1 [Compound 1-8, (1r,3r)-3-(cyanoamino)-N-{2-[2-(propan-2-yloxy)phenyl]-1,3-thiazol-5-yl}cyclobutane-1-carboxamide]",100 to 1000 nM
17,"N#CN[C@H]1C[C@H](C(=O)Nc2cnc(C3CC(F)(F)C3)s2)C1 [Compound 1-9, (1r,3r)-3-(cyanoamino)-N-[2-(3,3-difluoro-cyclobutyl)-1,3-thiazol-5-yl]cyclobutane-1-carboxamide]",100 to 1000 nM
18,"N#CN[C@H]1C[C@H](C(=O)Nc2nc(Cl)c(C3CCCCC3)s2)C1 [Compound 1-10, (1r,3r)-N-(4-chloro-5-cyclohexyl-1,3-thiazol-2-yl)-3-(cyanoamino)cyclo-butane-1-carboxamide]",< 100 nM
19,"C[C@]1(C(=O)Nc2cnc(C3CCCCC3)s2)C[C@H](NC#N)C1 [Compound 1-11, (1r,3s)-3-(cyanoamino)-N-(2-cyclohexyl-1,3-thiazol-5-yl)-1-methylcyclobutane-1-carboxamide]",< 100 nM
20,"CC1(C)CCCC[C@@H]1c1ncc(NC(=O)[C@H]2C[C@H](NC#N)C2)s1 [Compound 1-12, (1r,3r)-3-(cyanoamino)-N-{2-[(1S)-2,2-dimethylcyclohexyl]-1,3-thiazol-5-yl}cyclobutane-1-carboxamide]",< 100 nM
21,"N#CN[C@H]1C[C@H](C(=O)Nc2sc(C3CCCCC3)nc2Cl)C1 [Compound 1-14, (1r,3r)-N-(4-chloro-2-cyclohexyl-1,3-thiazol-5-yl)-3-(cyanoamino)cyclo-butane-1-carboxamide]",100 to 1000 nM
22,"CC1(C)[C@H](NC#N)C[C@H]1C(=O)Nc1cnc(C2CCCCC2)s1 [Compound 1-15, (1R,3R)-3-(cyanoamino)-N-(2-cyclohexyl-1,3-thiazol-5-yl)-2,2-dimethylcyclobutane-1-carboxamide]",100 to 1000 nM
23,"COCc1nc(NC(=O)[C@H]2C[C@H](NC#N)C2)sc1C1CCCCC1 [Compound 1-16, (1r,3r)-3-(cyanoamino)-N-[5-cyclohexyl-4-(methoxymethyl)-1,3-thiazol-2-yl]cyclobutane-1-carboxamide]",< 100 nM
24,"N#CN[C@H]1C[C@H](C(=O)Nc2sc(C3CCCCC3)nc2F)C1 [Compound 1-17, (1r,3r)-3-(cyanoamino)-N-(2-cyclohexyl-4-fluoro-1,3-thiazol-5-yl)cyclobutane-1-carboxamide]",100 to 1000 nM
25,"N#CN[C@H]1C[C@@H](C(=O)Nc2nc(Cl)c(C3CCCCC3)s2)C1 [Compound 1-18, (1s,3s)-N-(4-chloro-5-cyclohexyl-1,3-thiazol-2-yl)-3-(cyanoamino)cyclo-butane-1-carboxamide]",100 to 1000 nM
26,"CC(C)(C)c1sc(NC(=O)[C@H]2C[C@H](NC#N)C2)nc1Cl [Compound 1-19, (1r,3r)-N-(5-tert-butyl-4-chloro-1,3-thiazol-2-yl)-3-(cyanoamino)cyclo-butane-1-carboxamide]",< 100 nM
27,"N#CN[C@H]1C[C@H](C(=O)Nc2ccc(Cl)c(C(F)(F)F)c2)C1 [Compound 1-20, (1r,3r)-N-[4-chloro-3-(trifluoromethyl)phenyl]-3-(cyano-amino)cyclobutane-1-carboxamide]",1000 to 10000 nM
28,"C[C@@H]1CCCC[C@@H]1c1cnc(NC(=O)[C@H]2C[C@H](NC#N)C2)s1 [Compound 1-21, (1r,3r)-3-(cyanoamino)-N-{5-[(1S,2R)-2-methylcyclohexyl]-1,3-thiazol-2-yl}cyclobutane-1-carboxamide]",100 to 1000 nM
29,"C[C@H]1CCCC[C@H]1c1cnc(NC(=O)[C@H]2C[C@H](NC#N)C2)s1 [Compound 1-22, (1r,3r)-3-(cyanoamino)-N-{5-[(1R,2S)-2-methylcyclohexyl]-1,3-thiazol-2-yl}cyclobutane-1-carboxamide]",100 to 1000 nM
